{"source": "patent US7700375B2", "about": "“Fluorescent labeling of specific protein targets in vitro and in vivo” (Valorisation-Recherche, LP, priority 2004, dated 2010)", "key": {"[1]": {"test": "Fluorescence spectral properties of fluorogens and their ethanethiol adducts", "format": "physicochemical", "settings": "for φ (quantum yield): rapid approximation method of reference 34", "procedure": "For the application of this fluorogenic reaction to the detection of thiols and dithiols, two important criteria are the fluorescence intensity of the thiol addition product and the ratio of its fluorescence compared to its parent fluorogen. We studied the effect of electron withdrawing and donating substituants on these criteria by preparing the derivatives of fluorogen 4 shown in Scheme 1. Fluorogen 5, bearing an electron withdrawing ester group, was prepared according to a protocol similar to that used for fluorogen 4, but using an ester-substituted maleic anhydride derived by oxidation of dimethyl L-tartrate according to a published procedure.^31 Fluorogen 6 bears an electron donating methyl group and was obtained in similar yield by adaptation of the standard literature protocol,^25 using citraconic anhydride. The reaction of 5 and 6 with ethanethiol in DMSO led to the formation of thiol adducts 8 and 9, whose fluorescence was characterized as shown in Table 1. Even from this small series, certain tendencies are apparent. Increasing the electron donating capacity of the substituent appears to have a significant effect on the absorbance maximum corresponding to the wavelength of excitation, increasing by 37 nm from 8 to 9. Although the emission wavelength increases very slightly over the same series, the net effect on the Stokes shift is a significant decrease with increasing electron donating capacity of the substituent.\n(§1) Comparison of the fluorescent properties^34 of the four different parent fluorogens (and their corresponding thiol adducts) studied herein (see Table 2) substantiates our retention of compounds 13 and 20 as candidates for further tests with proteins.\nThe following material were obtained from Aldrich and were used without further purification: 2-hydroxy-5-nitrobenzaldehyde, N-acetylglycine, maleic anhydride, p-nitrophenylacetic acid, L-aspartic acid dimethyl ester hydrochloride, citraconic anhydride, dimethyl L-tartrate, dimethyl malonate. All reactions were carried out under an atmosphere of dry nitrogen employing conventional bench-top techniques except for reactions with thiols. ^13C-NMR and ^1H-NMR spectra were recorded on AMXR400 or AMX300 spectrometers and were referenced to the residual proton or ^13C signal of the solvent. Mass spectra were determined by FAB+ ionization on an AutoSpecQ spectrometer at the Regional Mass Spectrometry Centre at the Université de Montréal. Infrared spectra were recorded on a Perkin-Elmer (FTIR) spectrometer. Melting points (uncorrected) were determined on a Unimelt Tomas-Hoover or on a Gallenkamp meting point apparatus. Fluorescence spectra were recorded using a Varian Cary Eclipse fluorimeter and gel electrophoresis was carried out on a SpectraPhoresis 100 apparatus."}, "[2]": {"test": "Thiol addition reaction of fluorogens with ethanethiol (fluorescence increase)", "excerpt": "The fluorescence spectra obtained upon excitation at 350 nm before and after the reaction of ethanethiol with compound 4 are shown in FIG. 1.\nBased on this observation, we reasoned that compounds 4 and 13 should also react efficiently with one equivalent of a dithiol bearing two sulfhydryl groups separated by an appropriate distance. […] That is, after fluorogen 4 undergoes an initial addition reaction with BMMB, the second addition reaction with the pendant sulfhydryl group of BMMB is intramolecular and presumably much faster (Scheme 5).\n[formula] […] In the case of dithiol addition, this second addition reaction with a sulfhydryl group would be intramolecular, and presumably even faster."}, "diCys-Fos": {"biological_target": "diCys-Fos (Homo sapiens, UniProt P01100, C204S/L161C)", "sequence (P01100 118-211 L161C/C204S limits assumed)": "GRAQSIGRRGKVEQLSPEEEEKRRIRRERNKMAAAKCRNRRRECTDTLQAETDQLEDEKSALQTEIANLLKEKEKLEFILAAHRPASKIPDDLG", "test": "Protein labeling in vitro, SDS-PAGE with UV illumination", "format": "biochemical", "set-up": "the C99S mutant of a fragment of Fos", "settings": "0.242 mM protein, 0.5 mM of 20 or 0.05 mM of 13, 25° C. overnight", "procedure": "(§2) As mentioned in the introduction, an α-helical protein was designed to bear two cysteine residues, separated by a distance complementary to that between the maleimide groups of the designated fluorogen. The protein chosen as a starting point for this design was the C99S mutant of a fragment of Fos,^21 a known α-helical protein^22 whose recombinant expression has been published.^23 Site-directed mutagenesis was then performed^20,35 to introduce a cysteine residue (L56C), separated by two turns of the α-helical motif from the native Cys49, positioning the protein's only two thiol groups approximately 10 Å apart.^36 Although at higher concentrations, Fos is known to form a homodimer,^22 the distance between the intermolecular cysteine residues in this putative homodimer would render their reaction with a single fluorogen molecule impossible. […]\n(§3) Purified mCys-Fos and diCys-Fos were then tested in vitro for their ability to react with fluorogens 13 and 20. After incubation of 0.242 mM protein with 0.5 mM of 20 or 0.05 mM of 13 at 25° C. overnight, glycerol was added and the reaction mixtures were analyzed by SDS-PAGE using UV illumination and then Coomassie blue staining. […]"}, "[3]": {"test": "Temperature dependence of first-order rate constants of ethanethiol addition", "settings": "0.1 mM fluorogen, 2.0 mM ethanethiol in DMF, 10-40° C.", "procedure": "First-order rate constants for the reaction of 0.1 mM 13 with 2.0 mM ethanethiol in DMF were also measured as a function of temperature from 10-40° C. Over this temperature range, the observed rate constants increased slightly with temperature, but varied by less than a factor of 2, and evaporation of ethanethiol was problematic at 40° C. For these reasons, precise quantitative analysis of the effect of temperature (for example, in the form of an Eyring plot) was not possible."}, "mCys-Fos": {"biological_target": "T1, mCys-Fos (Homo sapiens, UniProt P01100, C204S)", "T1 construct": "the C99S mutant of a fragment of Fos; His-tag (N); made in house; host or cells: XL1-blue E. coli", "T1 sequence (P01100 118-211 C204S limits assumed)": "as the sequence (P01100 118-211 L161C/C204S limits assumed) above, with C44L counted along it", "test": "Protein labeling in vitro, SDS-PAGE with UV illumination", "format": "biochemical", "settings": "0.242 mM protein, 0.5 mM of 20 or 0.05 mM of 13, 25° C. overnight", "procedure": "as §2, §3"}, "[4]": {"test": "Product study of reaction with 3-mercaptopropionic acid by capillary electrophoresis", "settings": "up to 2 equivalents of 3-mercaptopropionic acid; CE", "excerpt": "Product studies carried out for the reaction of 4 with simple thiols support the hypothesis that the second addition reaction is faster than the first. Initial experiments involved the addition of ethanethiol to 4 and attempts to separate and characterize the dithiolated and monothiolated adducts. However, no significant peak corresponding to the putative monothiolated adduct could be isolated by flash chromatography, so an experiment was designed to facilitate the separation of the monothiolated and dithiolated adducts by capillary electrophoresis (CE, see Experimental Section). By using 3-mercaptopropionic acid as a simple thiol, we ensured that at basic pH, any monothiolated adduct would singly negatively charged, due to ionization of the carboxylate group, whereas the dithiolated product would be doubly negatively charged.\nAfter reaction of 1 mM 1 with 0.25-3 mM 3-mercaptopropionic acid in DMSO-H2O 1.9 overnight, the fluorescence of the reaction mixture was measured. To this mixture was then added 3 equivalents of ethanethiol, converting all unreacted and monothiolated adducts to dithiolated adducts. […] Their relative concentrations were calculated by the areas under their peaks, recorded UV detection at 370 nm. […]"}, "Solubility": {"test": "Solubility", "format": "physicochemical", "procedure": "as §1\nFinally, we wished to determine if fluorogens such as 13 and 20 were cytotoxic. […] Furthermore, even at 300 μM 20, the limit of its solubility in cell culture, 70% of COS cells were still viable (FIG. 8). […] The convenience of the application of this fluorescent labeling method is obvious from the low cytoxocity of 20, even at concentrations 30 times greater than those necessary for efficient labeling."}, "[5]": {"settings": "in DMSO, ratio of areas under fluorescence emission bands of fluorogen and its thiol adduct"}}, "data": [{"smiles": "O=C1C=CC(=O)N1c1ccc2oc(=O)c(N3C(=O)C=CC3=O)cc2c1", "note": "[Compound 4, 3,6-Dimaleimidylchromen-2-one]", "values": [{"measurement": "melting point", "result": "> 296 °C (dec.)"}]}, {"smiles": "COC(=O)C1=CC(=O)N(c2ccc3oc(=O)c(N4C(=O)C=C(C(=O)OC)C4=O)cc3c2)C1=O", "note": "[Compound 5, 3,6-Di-(3′-methoxycarbonylmaleimidyl)chromen-2-one]", "values": [{"measurement": "Stokes shift", "setting": "[1]; in DMSO", "result": 115, "unit": "nm"}, {"measurement": "λem (emission band)", "setting": "[1]; in DMSO", "result": "360-600 nm"}, {"measurement": "λem, wavelength corresponding to center of Full Width at Half Maximum of emission band", "setting": "[1]; in DMSO", "result": 447, "unit": "nm"}, {"measurement": "λexc", "setting": "[1]; in DMSO", "result": 332, "unit": "nm"}, {"measurement": "IF Ratio", "setting": "[1]; [5]", "result": 2.7}]}, {"smiles": "CC1=CC(=O)N(c2ccc3oc(=O)c(N4C(=O)C=C(C)C4=O)cc3c2)C1=O", "note": "[Compound 6, 3,6-Di-(3′-methylmaleimidyl)chromen-2-one]", "values": [{"measurement": "Stokes shift", "setting": "[1]; in DMSO", "result": 82, "unit": "nm"}, {"measurement": "λem (emission band)", "setting": "[1]; in DMSO", "result": "370-600 nm"}, {"measurement": "λem, wavelength corresponding to center of Full Width at Half Maximum of emission band", "setting": "[1]; in DMSO", "result": 455, "unit": "nm"}, {"measurement": "λexc", "setting": "[1]; in DMSO", "result": 373, "unit": "nm"}, {"measurement": "IF Ratio", "setting": "[1]; [5]", "result": 3.6}]}, {"smiles": "CCSC1C(=O)N(c2ccc3oc(=O)c(N4C(=O)C(SCC)C(C(=O)OC)C4=O)cc3c2)C(=O)C1C(=O)OC", "note": "(centres unmarked) [Compound 8, 3,6-Di-(3′-ethylthio-4′-methoxycarbonylsuccinimidyl)chromen-2-one]", "values": [{"measurement": "Stokes shift", "setting": "[1]; in DMSO", "result": 121, "unit": "nm"}, {"measurement": "λexc", "setting": "[1]; in DMSO", "result": 336, "unit": "nm"}]}, {"smiles": "CCSC1C(=O)N(c2ccc3oc(=O)c(N4C(=O)C(C)C(SCC)C4=O)cc3c2)C(=O)C1C", "note": "(centres unmarked) [Compound 9, 3,6-Di-(3′-ethylthio-4′-methylsuccinimidyl)chromen-2-one]", "values": [{"measurement": "Stokes shift", "setting": "[1]; in DMSO", "result": 82, "unit": "nm"}, {"measurement": "λexc", "setting": "[1]; in DMSO", "result": 373, "unit": "nm"}]}, {"smiles": "O=C1C=CC(=O)N1c1ccc(-c2cc3cc(N4C(=O)C=CC4=O)ccc3oc2=O)cc1", "note": "[Compound 13, 6-Maleimidyl-3-p-maleimidylphenylchromen-2-one]", "values": [{"measurement": "change in fluorescence on addition of ethanethiol", "setting": "[2]; 3 mM ethanethiol, 1 mM fluorogen, 9:1 H2O:DMSO, over 3 hours", "result": "marked increase in fluorescence"}, {"measurement": "equivalents of thiol at which fluorescence plateau was reached", "setting": "[2]; ethanethiol", "result": "~2.2", "unit": "equivalents"}, {"measurement": "fluorescent labeling of diCys-Fos", "setting": "diCys-Fos", "result": "efficiently fluorescently labeled"}, {"measurement": "variation of observed first-order rate constants with temperature (factor)", "setting": "[3]", "result": "< 2"}, {"measurement": "Stokes shift", "setting": "[1]; 10:90 DMSO: water", "result": 76, "unit": "nm"}, {"measurement": "λem (emission band)", "setting": "[1]; 10:90 DMSO: water", "result": "400-550 nm"}, {"measurement": "λem, wavelength corresponding to center of Full Width at Half Maximum of emission band", "setting": "[1]; 10:90 DMSO: water", "result": 460, "unit": "nm"}, {"measurement": "λexc", "setting": "[1]; 10:90 DMSO: water", "result": 384, "unit": "nm"}, {"measurement": "φ (quantum yield)", "setting": "[1]; 10:90 DMSO: water", "result": 0.006}, {"measurement": "IF Ratio", "setting": "[1]; 10:90 DMSO: water, ratio of areas under emission bands of fluorogen and thiol adduct", "result": 5.2}, {"measurement": "fluorescent labeling of mCys-Fos", "setting": "mCys-Fos", "result": "is not"}, {"measurement": "formation of monothiolated adduct", "setting": "[4]", "result": "no monothiolated product was detectable"}]}, {"smiles": "CCSC1CC(=O)N(c2ccc(-c3cc4cc(N5C(=O)CC(SCC)C5=O)ccc4oc3=O)cc2)C1=O", "note": "(centres unmarked) [Compound 14, 6-(3′-Ethylthiosuccinimidyl)-3-p-(3′-ethylthiosuccinimidyl)phenylchromen-2-one]", "values": [{"measurement": "Stokes shift", "setting": "[1]; 10:90 DMSO: water", "result": 76, "unit": "nm"}, {"measurement": "λexc", "setting": "[1]; 10:90 DMSO: water", "result": 384, "unit": "nm"}, {"measurement": "φ (quantum yield)", "setting": "[1]; 10:90 DMSO: water", "result": 0.223}]}, {"smiles": "O=C1C=CC(=O)N1c1cccc2c(N3C(=O)C=CC3=O)cccc12", "note": "[Compound 15, 1,5-Dimaleimidylnaphthalene]", "values": [{"measurement": "Stokes shift", "setting": "[1]; neat DMSO", "result": 63, "unit": "nm"}, {"measurement": "λem (emission band)", "setting": "[1]; neat DMSO", "result": "340-500 nm"}, {"measurement": "λem, wavelength corresponding to center of Full Width at Half Maximum of emission band", "setting": "[1]; neat DMSO", "result": 391, "unit": "nm"}, {"measurement": "λexc", "setting": "[1]; neat DMSO", "result": 328, "unit": "nm"}, {"measurement": "φ (quantum yield)", "setting": "[1]; neat DMSO", "result": "1.70 × 10^−3"}, {"measurement": "IF Ratio", "setting": "[1]; neat DMSO, ratio of areas under emission bands of fluorogen and thiol adduct", "result": 31}, {"measurement": "solubility in water / aqueous DMSO", "setting": "Solubility", "result": "insoluble in water, even upon the addition of up to 10% DMSO"}]}, {"smiles": "CCSC1CC(=O)N(c2cc3c4c(cc(N5C(=O)CC(SCC)C5=O)cc4c2)C(=O)N([C@@H](CC(=O)OC)C(=O)OC)C3=O)C1=O", "note": "(stereo partly drawn) [Compound 21, N-(3,6-Di(3′-ethylthiosuccinimidyl)-1,8-naphthalyl)-L-aspartic acid dimethyl ester]", "values": [{"measurement": "Stokes shift", "setting": "[1]; 10:90 DMSO: water", "result": 67, "unit": "nm"}, {"measurement": "λexc", "setting": "[1]; 10:90 DMSO: water", "result": 511, "unit": "nm"}, {"measurement": "fluorescence of ethanethiol adduct relative to parent fluorogen (factor)", "setting": "[1]; adduct vs parent fluorogen (16 in DMSO)", "result": 8.5}, {"measurement": "detectability of adduct fluorescence", "setting": "[1]; ethanethiol adduct", "result": "easily detected at micromolar concentrations"}]}]}
